Experimental data from patent US20220354764A1, “METHODS FOR PROMOTING HAIR GROWTH” (Follica, Inc., priority 2018, published 2022).

Assays:
[1] = Minoxidil blood serum concentration after needling device treatment plus 2%/5% MTS (Example 1); format: in vivo, human
Procedure: A multicenter randomized study was conducted to assess the safety and efficacy of treatment methods using a needling device in conjunction with minoxidil in adult males with androgenetic alopecia (AGA). The study involved 14 subjects, male, age 18-40 years, with a diagnosis of androgenetic alopecia. Data for 46 additional subjects is being gathered. The subjects were randomized and then completed treatment across 12 weeks (total of 3, 6, or 12 treatments with the needling device per randomization assignment, n=20 per arm). A final evaluation was conducted on Day 85 with no additional follow up required.
On Day 0, subjects were randomized to receive treatment with the needling device on a weekly (12 treatments), bi-weekly (6 treatments), or monthly (once every 4 weeks, for 3 total treatments) basis for 12 weeks, in a 1:1:1 ratio according to a centrally maintained randomization table. Treatment of the vertex (including transitional areas) with the needling device was initiated on Day 1.
Subjects in the monthly arm received needling device treatment once every 4 weeks, for 3 procedures total (e.g., needling device treatment on Days 1, 29, 57). Subjects in the bi-weekly arm received needling device treatment once every 2 weeks, for 6 procedures total (e.g., needling device treatment on Days 1, 15, 29, 43, 57, and 71). Subjects in the weekly arm received needling device treatment once every week, for 12 procedures total (e.g., needling device treatment on Days 1, 8, 15, 22, 29, 36, 43, 50, 57, 64, 71, and 78).
During needling treatments, the translation speed of the device, which is the speed at which the needling device was glided over the affected skin area, was 2 cm/second, while keeping the device perpendicular to the surface to help achieve a needle strike of 0.8 mm (+/−0.2 mm) micro-needling depth. The device needle array has 12 needles and the number of array oscillations per second was set at 120. The treatment width was 0.9 cm. Two overlapping passes were made in vertical and horizontal directions. As a result, 1600 needle strikes per cm^2 were performed. The micro-needling device was glided across the affected area of the skin such that each pass across the area of skin aligned with the prior pass across the skin, without gaps of skin between the passes, in a “mow the lawn” approach. Each pass of the micro-needling device started with a gliding start and a smooth retraction of the device from the skin area following each pass. The micro-needling device was applied to the skin area with consistent, light pressure, allowing the device to glide along the skin. The configuration of needles in the needle array consists of 2 offset rows of 6 microneedles.
A post-treatment visit was required following each subject's first treatment with the needling device across all study arms to confirm wound closure. The post-treatment visit was performed 24-36 hours following the first treatment with the needling device. If adequate wound closure and skin normality was not achieved, the subject would return for a second post-treatment visit 24-36 hours following the first post-treatment visit. Once adequate wound closure was confirmed, subjects were provided study drug to be applied in accordance with the instructions provided herein (vertex, including transitional areas). The very first application of study drug was performed in-clinic during the first post-treatment visit in which wound closure is confirmed. […]

[2] = system: adult males with androgenetic alopecia (AGA); experiment: Hair count by macrophotography after needling device treatment plus minoxidil (Example 1); format: in vivo, human; settings: needling device plus 2%/5% MTS, 12 weeks; comparison: 12% increase in Olsen 2002 and 2007
Excerpt: A macrophotography procedure as referred to herein includes identifying the designated photography site, clipping hair within targeted photography site to a length of 1 mm, and creating a needlestick tattoo in the center of the targeted photography site for future orientation (pressure was applied until any bleeding stops), mapping the position of the tattoo, and recording the measurements on the provided documentation. The procedure further includes using the tattoo as a reference point take the first Baseline photograph without the contact plate, and again, using the tattoo as a reference point, performing remaining Baseline photography with the contact plate. From the identified designated photography site, the width of each hair is determined using an electronic caliber measurement. All hairs greater than […] are classified as terminal hairs. […]
A macrophotography procedure as described above was carried out for each subject, using a single, circular 1.9 cm^2 site in the leading edge of an actively balding area of the vertex as the designated photography site. Total Area Hair Count (TAHC), Target Area Hair Width (TAHW) and Target Area Hair Density/Darkness (TAHD) were assessed via quantitative image analysis to determine non-vellus hair count (primary and secondary endpoint) and total hair count (non-vellus and vellus hair, secondary endpoint). […]

serum level average, Day 1 ([1]; Day 1, needling device plus MTS regimen): 1.29 ng/mL
serum level average, Day 29 ([1]; Day 29, needling device plus MTS regimen): 0.99 ng/mL
serum level average, Day 57 ([1]; Day 57, needling device plus MTS regimen): 0.79 ng/mL
serum level average, Day 85 ([1]; Day 85, final study visit, needling device plus MTS regimen): 0.65 ng/mL
maximum serum level recorded in the study ([1]; individual maximum, needling device plus 2%/5% MTS step-up): 5.5 ng/mL
Structure (SMILES): Nc1cc(N2CCCCC2)nc(N)[n+]1[O-] [minoxidil]
subjects showing an increase in non-vellus target area hair count greater than prior large minoxidil studies [2]: 79%
